# Legend:
# hnRNP A1 RRM1 domain = biological target: T1, hnRNP A1 RRM1 domain (Homo sapiens, UniProt P09651); assay: FP competition assay with the same fluorescently-labeled RNA; assay type: binding
# T1 construct: we expressed and purified hnRNP A1’s RRM1 domain; made in house
# MSI1 RRM1 = biological target: T2, MSI1 RRM1 (Homo sapiens, UniProt O43347); assay: Differential Scanning Fluorimetry (DSF); assay type: binding; settings: increasing compound dose
# T2 sequence (O43347 20-110 limits assumed): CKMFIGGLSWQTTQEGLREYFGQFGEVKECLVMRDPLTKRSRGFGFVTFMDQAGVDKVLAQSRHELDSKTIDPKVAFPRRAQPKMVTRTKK
# Source text: Out of concern that R12–7’s activity may be associated with compound aggregation, we elected to continue with optimization of R12–8 (Figure 2b).
# To further characterize R12–8–44–3, we applied differential scanning fluorimetry (DSF) as an orthogonal secondary assay. […] While this could be a sign of apparent inhibition occurring through aggregation, there are also legitimate inhibitors that reduce their target protein’s melting temperature. An alternate explanation could simply be that MSI1’s folding landscape is not simply two-state, and that a partially-folded intermediate stabilized by R12–8–44–3 affects the unfolding transition.
# MSI2 = MSI2 (Homo sapiens, UniProt Q96DH6); assay: Cellular thermal shift assay (CETSA) in K562 cells; assay type: cell-based; settings: K562, 3 hours, 20 μM or 40 μM, heated to 49 °C
# Source text: To explore the effect of these MSI2 inhibitors in a cancer-relevant cellular context, we selected two MSI2-dependent cancer cell lines: non-small cell lung cancer cell line PC9 and leukemia cell line K562 [73, 98–101]. Upon treatment of PC9 cells with Ro, R12–8–44–3, or negative control R12-neg, we found at multiple time points that cellular MSI2 protein levels were unchanged (Figure 6a). To confirm target engagement, we therefore adapted the cellular thermal shift assay (CETSA). […]
# Figure 6: Direct cellular engagement of MSI2 interaction by R12–44–3. […] MSI2 protein abundance was then quantified and normalized to untreated sample. One representative image is shown; quantification is presented as the average ± S.E.M. from 3 independent replicates. […] Cells were briefly incubated at temperatures between 40 °C to 67 °C, then centrifuged and the amount of MSI2 remaining in the soluble fraction was quantified by Western blotting. […] One representative image is shown; quantification is presented as the average ± S.E.M. from 3 independent replicates, normalized first to beta-actin and then to DMSO control. […] One representative image is shown; quantification is presented as the average ± S.E.M. from 3 independent replicates, normalized first to beta-actin and then to DMSO control. […]
# K562 cells = assay: Cell growth/survival, K562; assay type: cell-based, human
# Source text: It is difficult to determine precisely why Ro and R12–8–44–3 have such dramatically different behavior in this assay: one possibility is that Ro, a repurposed compound originally reported for activity unrelated to MSI2, may exert its cytotoxic effect in these cell lines through molecular targets unrelated to MSI2.
# PC9 cells = assay: Clonogenic assay, combination with osimertinib, PC9; assay type: cell-based, human; settings: PC9, 7 days, 2 nM osimertinib with 10 μM compound
# Protocol: Figure 7: Cellular characterization of MSI2 inhibition by R12–8–44–3. (A) Quantification of mRNA immunoprecipitation (RIP) results. Cells were treated with 10 μM of the indicated compounds for 8 hours. After immunoprecipitation with anti-MSI2, mRNA targets were quantified. The amount of each target mRNA in the pulldown was calculated relative to the input, and results from all targets were normalized to PTP4A1. Treating cells with R12–8–44–3 disrupted the interaction with all four cognate mRNAs (PTP4A, SMAD3, EGFR, and MSI2). Data are presented as the average ± S.E.M. from at least 3 independent replicates. […] Cells were treated with indicated compounds at two concentrations (5 μM and 20 μM) for 48 hours, then protein levels of relevant MSI2 targets were determined (EGFR, SMAD3, and MSI2). One representative image is shown; quantification is presented as the average ± S.E.M. from at least 3 independent replicates, normalized first to beta-actin and then to DMSO-treated cells. (C) Cell viability dose-response quantified by CellTiter-Blue after 3 days (left) and cell proliferation with 10μM of compounds quantified by clonogenic assay after 7 days (right). […] (D) Cell viability quantified by clonogenic assay of PC9 cell line after 7-day treatment with 2 nM osimertinib (osi alone), osimertinib with 10 μM R12–8–44–3, or osimertinib with 10 μM R12-neg. […]
# T1 sequence (P09651 14-97 limits assumed): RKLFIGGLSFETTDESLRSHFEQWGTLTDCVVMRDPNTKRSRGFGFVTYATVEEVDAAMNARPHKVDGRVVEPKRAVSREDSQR
# MSI2, sequence (Q96DH6 whole entry): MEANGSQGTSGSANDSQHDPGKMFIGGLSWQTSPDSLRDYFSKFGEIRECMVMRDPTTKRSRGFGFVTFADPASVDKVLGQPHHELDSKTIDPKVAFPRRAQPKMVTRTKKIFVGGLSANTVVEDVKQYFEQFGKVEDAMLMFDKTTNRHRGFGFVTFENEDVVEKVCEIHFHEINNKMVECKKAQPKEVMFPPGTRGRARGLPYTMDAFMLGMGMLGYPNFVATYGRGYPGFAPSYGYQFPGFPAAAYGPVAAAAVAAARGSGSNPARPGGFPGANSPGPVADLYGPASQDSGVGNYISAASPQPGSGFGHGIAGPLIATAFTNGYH
smiles,measurement,setting,value
Cc1cc(C(=O)OCc2nc(N)c3c(C)c(C)sc3n2)c(N)cc1F [R12–8–44–3],inhibition of hnRNP A1 RNA binding,hnRNP A1 RRM1 domain,does not inhibit
same,change of the protein's melting temperature,MSI1 RRM1,monotonically decreased MSI1’s melting temperature
same,soluble MSI2 after heating (CETSA),MSI2,confers protection against thermal-induced aggregation
same,cell growth/survival,K562 cells,results in alignment with our observations from PC9 cells
same,clonogenic assay in combination with osimertinib,PC9 cells,robust combined effect with osimertinib
